# Reference: ChEMBL document CHEMBL4007434, “Indazole-Based Covalent Inhibitors To Target Drug-Resistant Epidermal Growth Factor Receptor” (J Med Chem, 2017)
# The source made the active and inactive calls. No cut-off for these calls is given here.
# Tested on: Liver
# Test: Stability in human liver microsomes at 3 uM up to 50 mins by LCMS analysis
# Format: ADME, microsome
# Conditions: not given
row,SMILES,Stability
1,C=CC(=O)Nc1cc(Nc2n[nH]c3ccc(-c4ccc5ccccc5c4)cc23)c(OC)cc1N(C)CCN(C)C,Stable
2,C=CC(=O)Nc1cc(Nc2n[nH]c3ccc(-c4ccc(F)cc4)cc23)c(OC)cc1N(C)CCN(C)C,Stable

# Tested on: not listed separately
# Test: Stability in mouse plasma assessed as compound remaining at 5 uM after 1 hr by LCMS analysis
# Format: ADME, cell-free
# Conditions: read-out: Stability
row,SMILES,"remaining at 1 h, 5 µM"
1,C=CC(=O)Nc1cc(Nc2n[nH]c3ccc(-c4ccc5ccccc5c4)cc23)c(OC)cc1N(C)CCN(C)C,> 90%
2,C=CC(=O)Nc1cc(Nc2n[nH]c3ccc(-c4ccc(F)cc4)cc23)c(OC)cc1N(C)CCN(C)C,> 90%

# Tested on: not listed separately
# Test: Ratio of EC50 for wild-type EGFR in human A431 cells to EC50 for EGFR delE746_A750 mutant in human HCC827 cells
# Conditions: not given
row,SMILES,Ratio EC50
1,C=CC(=O)Nc1cc(Nc2n[nH]c3ccc(-c4ccc(F)cc4)cc23)c(OC)cc1N(C)CCN(C)C,3 - 4

# Target: T1, Epidermal growth factor receptor (Homo sapiens, UniProt P00533)
# Test: Inhibition of EGF-induced wild-type EGFR phosphorylation in human A431 cells at 10 uM pre-incubated for 1 hr followed by EGF stimulation for 30 mins by Western blot analysis
# Format: cell-based
# Conditions: 0.5 h
row,SMILES,inhibition (INH)
1,C=CC(=O)Nc1cc(Nc2n[nH]c3ccc(-c4ccc(F)cc4)cc23)c(OC)cc1N(C)CCN(C)C,Active

# Tested on: not listed separately
# Test: Ratio of IC50 for wild-type human N-terminal GST-tagged EGFR cytoplasmic domain (669 to 1210 end amino acid residues) expressed in baculovirus expression system to IC50 for human N-terminal GST-tagged EGFR L858R/T790M double mutant cytoplasmic domain (669 to 1210 end amino acid residues) expressed in baculovirus expression system
# Conditions: not given
row,SMILES,Ratio IC50
1,C=CC(=O)Nc1cc(Nc2n[nH]c3ccc(-c4ccc5ccccc5c4)cc23)c(OC)cc1N(C)CCN(C)C,8

# Target: T2, Epidermal growth factor receptor (Homo sapiens, UniProt P00533, L858R/T790M)
# Conditions: not given
row,SMILES,IC50
1,C=CC(=O)Nc1cc(Nc2n[nH]c3ccc(-c4ccc5ccccc5c4)cc23)c(OC)cc1N(C)CCN(C)C,1.1 nM
2,C=CC(=O)Nc1cc(Nc2n[nH]c3ccc(-c4ccc(F)cc4)cc23)c(OC)cc1N(C)CCN(C)C,< 1 nM

# Target: T1, Epidermal growth factor receptor
# Test: Reversible inhibition of wild-type human N-terminal GST-tagged EGFR cytoplasmic domain (669 to 1210 end amino acid residues) expressed in baculovirus expression system using TK peptide substrate preincubated for 2 to 90 mins followed by 6-fold dilution
# Conditions: not given
row,SMILES,Ki
1,C=CC(=O)Nc1cc(Nc2n[nH]c3ccc(-c4ccc5ccccc5c4)cc23)c(OC)cc1N(C)CCN(C)C,147 nM

# Target: T2, Epidermal growth factor receptor
# Test: Inhibition of EGFR L858R/T790M double mutant in human NCI-H1975 cells assessed as reduction in EGF-induced Akt phosphorylation at S473 pre-incubated for 1 hr followed by EGF stimulation for 30 mins by Western blot analysis
# Format: cell-based
# Conditions: not given
row,SMILES,EC50
1,C=CC(=O)Nc1cc(Nc2n[nH]c3ccc(-c4ccc5ccccc5c4)cc23)c(OC)cc1N(C)CCN(C)C,1000 to 10000 nM

# Target: T1, Epidermal growth factor receptor
# Test: Inhibition of wild-type EGFR in human A431 cells assessed as reduction in cell viability after 96 hrs by CellTiterGlo assay
# Format: ADME, cell-based
# Conditions: not given
row,SMILES,EC50
1,C=CC(=O)Nc1cc(Nc2n[nH]c3ccc(-c4ccc5ccccc5c4)cc23)c(OC)cc1N(C)CCN(C)C,1770 nM
2,C=CC(=O)Nc1cc(Nc2n[nH]c3ccc(-c4ccc(F)cc4)cc23)c(OC)cc1N(C)CCN(C)C,2070 nM

# Tested on: Epidermal growth factor receptor (Homo sapiens), P00533 [T790M]
# Test: Binding affinity to EGFR T790M mutant (unknown origin) assessed as covalent adduct formation at 100 uM after 1 hr by ESI-MS analysis
# Conditions: not given
row,SMILES,Activity
1,C=CC(=O)Nc1cc(Nc2n[nH]c3ccc(-c4ccc5ccccc5c4)cc23)c(OC)cc1N(C)CCN(C)C,Active
2,C=CC(=O)Nc1cc(Nc2n[nH]c3ccc(-c4ccc(F)cc4)cc23)c(OC)cc1N(C)CCN(C)C,Active

# Target: T2, Epidermal growth factor receptor
# Test: Reversible inhibition of human N-terminal GST-tagged EGFR L858R/T790M double mutant cytoplasmic domain (669 to 1210 end amino acid residues) expressed in baculovirus expression system using TK peptide substrate preincubated for 2 to 90 mins followed by 6-fold dilution
# Conditions: not given
row,SMILES,Ki
1,C=CC(=O)Nc1cc(Nc2n[nH]c3ccc(-c4ccc5ccccc5c4)cc23)c(OC)cc1N(C)CCN(C)C,28 nM

# Target: T3, Epidermal growth factor receptor (Homo sapiens, UniProt P00533, L858R)
# Test: (§1) Reversible inhibition of human N-terminal GST-tagged EGFR L858R mutant cytoplasmic domain (669 to 1210 end amino acid residues) expressed in baculovirus expression system using TK peptide substrate preincubated for 2 to 90 mins followed by 6-fold dilution
# Conditions: not given
row,SMILES,Ki
1,C=CC(=O)Nc1cc(Nc2n[nH]c3ccc(-c4ccc5ccccc5c4)cc23)c(OC)cc1N(C)CCN(C)C,105 nM

# Tested on: Epidermal growth factor receptor (Homo sapiens), P00533 [L858R]
# Test: as §1
# Conditions: not given
row,SMILES,inhibition
1,C=CC(=O)Nc1cc(Nc2n[nH]c3ccc(-c4ccc(F)cc4)cc23)c(OC)cc1N(C)CCN(C)C,Active

# Target: T2, Epidermal growth factor receptor
# Test: (§2) Inhibition of EGF-induced EGFR L858R/T790M double mutant phosphorylation in human NCI-H1975 cells pre-incubated for 1 hr followed by EGF stimulation for 30 mins by Western blot analysis
# Format: cell-based
# Conditions: not given
row,SMILES,EC50
1,C=CC(=O)Nc1cc(Nc2n[nH]c3ccc(-c4ccc5ccccc5c4)cc23)c(OC)cc1N(C)CCN(C)C,1000 to 10000 nM
2,C=CC(=O)Nc1cc(Nc2n[nH]c3ccc(-c4ccc(F)cc4)cc23)c(OC)cc1N(C)CCN(C)C,100 to 1000 nM

# Tested on: Epidermal growth factor receptor (Homo sapiens), P00533 [L858R,T790M]
# Test: as §2
# Format: cell-based
# Conditions: not given
row,SMILES,inhibition
1,C=CC(=O)Nc1cc(Nc2n[nH]c3ccc(-c4ccc(F)cc4)cc23)c(OC)cc1N(C)CCN(C)C,Dose-dependent effect

# Tested on: Epidermal growth factor receptor (Homo sapiens), P00533 [L858R,T790M,C797S]
# Test: Inhibition of EGFR L858R/T790M/C797S triple mutant (unknown origin) by HTRF assay
# Conditions: not given
row,SMILES,inhibition
1,C=CC(=O)Nc1cc(Nc2n[nH]c3ccc(-c4ccc5ccccc5c4)cc23)c(OC)cc1N(C)CCN(C)C,inactive
2,C=CC(=O)Nc1cc(Nc2n[nH]c3ccc(-c4ccc(F)cc4)cc23)c(OC)cc1N(C)CCN(C)C,inactive

# Tested on: not listed separately
# Test: Ratio of EC50 for wild-type EGFR in human A431 cells to EC50 for EGFR L858R/T790M double mutant in human NCI-H1975 cells
# Conditions: not given
row,SMILES,Ratio EC50
1,C=CC(=O)Nc1cc(Nc2n[nH]c3ccc(-c4ccc(F)cc4)cc23)c(OC)cc1N(C)CCN(C)C,3 - 4

# Target: T1, Epidermal growth factor receptor
# Format: ADME
# Conditions: not given
row,SMILES,IC50
1,C=CC(=O)Nc1cc(Nc2n[nH]c3ccc(-c4ccc5ccccc5c4)cc23)c(OC)cc1N(C)CCN(C)C,8.1 nM
2,C=CC(=O)Nc1cc(Nc2n[nH]c3ccc(-c4ccc(F)cc4)cc23)c(OC)cc1N(C)CCN(C)C,6.8 nM

# Tested on: not listed separately
# Test: Stability in human plasma assessed as compound remaining at 5 uM after 1 hr by LCMS analysis
# Format: ADME, cell-free
# Conditions: read-out: Stability
row,SMILES,"remaining at 1 h, 5 µM"
1,C=CC(=O)Nc1cc(Nc2n[nH]c3ccc(-c4ccc5ccccc5c4)cc23)c(OC)cc1N(C)CCN(C)C,> 75%
2,C=CC(=O)Nc1cc(Nc2n[nH]c3ccc(-c4ccc(F)cc4)cc23)c(OC)cc1N(C)CCN(C)C,> 75%

# Tested on: Epidermal growth factor receptor (Homo sapiens), P00533 [L858R,T790M]
# Test: Inhibition of EGFR L858R/T790M double mutant in human NCI-H1975 cells assessed as reduction in EGF-induced Akt phosphorylation at S473 at 0.1 to 10 uM pre-incubated for 1 hr followed by EGF stimulation for 30 mins by Western blot analysis
# Format: cell-based
# Conditions: not given
row,SMILES,inhibition
1,C=CC(=O)Nc1cc(Nc2n[nH]c3ccc(-c4ccc(F)cc4)cc23)c(OC)cc1N(C)CCN(C)C,Active

# Target: T1, Epidermal growth factor receptor
# Test: Ratio of Kinact to Ki for reversible inhibition of wild-type human N-terminal GST-tagged EGFR cytoplasmic domain (669 to 1210 end amino acid residues) expressed in baculovirus expression system
# Conditions: not given
row,SMILES,kinact/KI
1,C=CC(=O)Nc1cc(Nc2n[nH]c3ccc(-c4ccc5ccccc5c4)cc23)c(OC)cc1N(C)CCN(C)C,20000 M⁻¹ s⁻¹

# Target: T1, Epidermal growth factor receptor
# Test: Inhibition of wild-type EGFR in human A431 cells assessed as reduction in EGF-induced Akt phosphorylation at S473 pre-incubated for 1 hr followed by EGF stimulation for 30 mins by Western blot analysis
# Format: cell-based
# Conditions: not given
row,SMILES,EC50
1,C=CC(=O)Nc1cc(Nc2n[nH]c3ccc(-c4ccc5ccccc5c4)cc23)c(OC)cc1N(C)CCN(C)C,1000 to 10000 nM

# Tested on: Epidermal growth factor receptor (Homo sapiens), P00533 [L858R,T790M]
# Conditions: not given
row,SMILES,Kinact
1,C=CC(=O)Nc1cc(Nc2n[nH]c3ccc(-c4ccc5ccccc5c4)cc23)c(OC)cc1N(C)CCN(C)C,0.5 min⁻¹

# Target: T1, Epidermal growth factor receptor
# Test: Inhibition of EGF-induced wild-type EGFR phosphorylation in human A431 cells pre-incubated for 1 hr followed by EGF stimulation for 30 mins by Western blot analysis
# Format: cell-based
# Conditions: not given
row,SMILES,EC50
1,C=CC(=O)Nc1cc(Nc2n[nH]c3ccc(-c4ccc5ccccc5c4)cc23)c(OC)cc1N(C)CCN(C)C,1000 to 10000 nM

# Tested on: Epidermal growth factor receptor (Homo sapiens), P00533 [L858R]
# Conditions: not given
row,SMILES,Kinact
1,C=CC(=O)Nc1cc(Nc2n[nH]c3ccc(-c4ccc5ccccc5c4)cc23)c(OC)cc1N(C)CCN(C)C,0.14 min⁻¹

# Tested on: Liver
# Test: Stability in mouse liver microsomes at 3 uM up to 50 mins by LCMS analysis
# Format: ADME, microsome
# Conditions: not given
row,SMILES,Stability
1,C=CC(=O)Nc1cc(Nc2n[nH]c3ccc(-c4ccc5ccccc5c4)cc23)c(OC)cc1N(C)CCN(C)C,Stable
2,C=CC(=O)Nc1cc(Nc2n[nH]c3ccc(-c4ccc(F)cc4)cc23)c(OC)cc1N(C)CCN(C)C,Stable

# Target: T1, Epidermal growth factor receptor
# Test: Reversible inhibition of wild-type human N-terminal GST-tagged EGFR cytoplasmic domain (669 to 1210 end amino acid residues) expressed in baculovirus expression system using TK peptide substrate assessed as inactivation constant preincubated for 2 to 90 mins followed by 6-fold dilution
# Conditions: not given
row,SMILES,kinact
1,C=CC(=O)Nc1cc(Nc2n[nH]c3ccc(-c4ccc5ccccc5c4)cc23)c(OC)cc1N(C)CCN(C)C,0.003 s⁻¹

# Target: T3, Epidermal growth factor receptor
# Conditions: not given
row,SMILES,IC50
1,C=CC(=O)Nc1cc(Nc2n[nH]c3ccc(-c4ccc5ccccc5c4)cc23)c(OC)cc1N(C)CCN(C)C,2.2 nM
2,C=CC(=O)Nc1cc(Nc2n[nH]c3ccc(-c4ccc(F)cc4)cc23)c(OC)cc1N(C)CCN(C)C,2 nM
